Test [1] concerns the target GDP-bound NRAS wild-type protein (Homo sapiens, UniProt P01111). The test is described as follows: Binding to NRAS by surface plasmon resonance (SPR), Single Cycle Kinetics.
Test [2] addresses GDP-bound HRAS wild-type protein (Homo sapiens, UniProt P01112). The test is described as follows: Binding to HRAS by surface plasmon resonance (SPR), Single Cycle Kinetics.
Where [3] appears, read: SPR, GDP-bound wild-type proteins.

Structures are written as SMILES. *1 amine or outer side, *2 acyl side, *3 side chain or, on linkers, in order; H or OH if unused. Where a SMILES comes first, the peptide text is derived from it. Bridges are numbered along the chain shown (N, C = ends). [ ]: non-standard residue; d: D form. The star is where a group is joined. hPhe(3-Cl-4-CF3) = N[C@@H](CCc1ccc(C(F)(F)F)c(Cl)c1)C(=O)O; NPrPhe(4-CF3) = CCCN[C@@H](Cc1ccc(C(F)(F)F)cc1)C(=O)O; X44 = CCCN([C@@H](Cc1ccccc1)C(=O)[*:2])[*:1]; NMePhe(4-Me) = CN[C@@H](Cc1ccc(C)cc1)C(=O)O; NMeGly(cPent) = CN[C@H](C(=O)O)C1CCCC1; NMeD = CN[C@@H](CC(=O)O)C(=O)O; NMeL = CN[C@@H](CC(C)C)C(=O)O; Morpholide = C1CN(*)CCO1; NMeAib = CNC(C)(C)C(=O)O; Nle = CCCC[C@H](N)C(=O)O; Piperidide = C1CCN(*)CC1; dNMeA = CN[C@H](C)C(=O)O; Ac5c = NC1(C(=O)O)CCCC1; Sar = CNCC(=O)O

Seven compounds from patent publication US20250230193A1, “CYCLIC COMPOUND HAVING SELECTIVE KRAS INHIBITORY EFFECT ON HRAS AND NRAS” (CHUGAI SEIYAKU KABUSHIKI KAISHA, priority 2022, published 2025) can be followed below.

Sequence of GDP-bound NRAS wild-type protein (P01111 whole entry): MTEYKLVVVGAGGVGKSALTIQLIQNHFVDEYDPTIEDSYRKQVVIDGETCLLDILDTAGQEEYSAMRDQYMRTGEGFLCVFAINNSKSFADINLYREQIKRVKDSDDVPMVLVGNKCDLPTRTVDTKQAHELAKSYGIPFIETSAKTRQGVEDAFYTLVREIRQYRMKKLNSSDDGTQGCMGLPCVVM
Sequence of GDP-bound HRAS wild-type protein (P01112 whole entry): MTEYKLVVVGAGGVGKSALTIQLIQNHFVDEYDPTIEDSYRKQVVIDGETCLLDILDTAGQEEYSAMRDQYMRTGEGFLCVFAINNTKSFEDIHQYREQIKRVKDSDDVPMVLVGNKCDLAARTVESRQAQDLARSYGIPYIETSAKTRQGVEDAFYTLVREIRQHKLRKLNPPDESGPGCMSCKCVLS

On to `CCO[C@@H]1C[C@H]2C(=O)NC3(CC(C)(C)C3)C(=O)N(C)[C@@H](C3CCCC3)C(=O)N(C)[C@H](C(=O)N3CCCC3)CC(=O)N(C)[C@H]3CCCC/C=C/c4ccc(cc4)C[C@@H](C(=O)N(C)CC(=O)N[C@@H](CCc4ccc(Cl)c(Cl)c4)C(=O)N2C1)N1CC/C=C\C[C@@H](C1=O)N(C)C(=O)CN(C)C(=O)[C@H]([C@@H](C)CC)NC3=O` [PP2593], for which the “NRAS/KRAS (ratio of KD value with respect to GDP-bound NRAS wild-type protein to KD value with respect to KRAS)” value in test [1] (class symbols) was “A (a compound having 10 or more and less than 20 is denoted as A)”. For the same compound, in test [2] (class symbols), the “HRAS/KRAS (ratio of KD value with respect to GDP-bound HRAS wild-type protein to KD value with respect to KRAS)” value is “A (a compound having 10 or more and less than 20 is denoted as A)”.

As for `CC[C@@H]1C[C@H]2C(=O)NC3(CCC3)C(=O)N(C)[C@@H](C3CCCC3)C(=O)N(C)[C@H](C(=O)N(C)C)CC(=O)N(C)[C@@H](CC(C)C)C(=O)N[C@@H]([C@@H](C)CC)C(=O)N(C)CC(=O)N(C)[C@H]3C/C=C\CCN(C3=O)[C@@H](Cc3ccc(C)cc3)C(=O)N(C)CC(=O)N[C@@H](CCc3cc(F)c(C(F)(F)F)c(F)c3)C(=O)N2C1` [PP2220], the “NRAS/KRAS (ratio of KD value with respect to NRAS to KD value with respect to KRAS)” value in test [1] (SPR, GDP-bound NRAS wild-type vs GDP-bound KRAS wild-type) is “A (a compound having 10 or more and less than 20 is denoted as A)”. In test [2] (SPR, GDP-bound HRAS wild-type vs GDP-bound KRAS wild-type), the “HRAS/KRAS (ratio of KD value with respect to HRAS to KD value with respect to KRAS)” value is “A (a compound having 10 or more and less than 20 is denoted as A)”.

Regarding `CCC[C@H]1C(=O)N[C@@H](C2CCCCC2)C(=O)N(C)CC(=O)N(C)[C@H]2C/C=C\CCN(C2=O)[C@@H](Cc2ccc(C)cc2)C(=O)N(C)CC(=O)N[C@@H](CCc2ccc(C(F)(F)F)c(Cl)c2)C(=O)N2C[C@H](OCC)C[C@H]2C(=O)NC2(CC(C)(C)C2)C(=O)N(C)[C@@H](C2CCCC2)C(=O)N(C)[C@H](C(=O)N(C)C)CC(=O)N1C` [PP2998], in test [1] (setting [3]), the “NRAS/KRAS (ratio of KD value with respect to GDP-bound NRAS wild-type protein to KD value with respect to KRAS)” value was “A (a compound having 10 or more and less than 20 is denoted as A)”. The “HRAS/KRAS (ratio of KD value with respect to GDP-bound HRAS wild-type protein to KD value with respect to KRAS)” value in test [2] (setting [3]) is “AA (a compound having 20 or more is denoted as AA)”.

As for `CCCO[C@@H]1C[C@H]2C(=O)NC3(CC(C)(C)C3)C(=O)N(C)[C@@H](C(CC)CC)C(=O)N(C)[C@H](C(=O)N(C)C)CC(=O)N(C)[C@H]3CCCc4ccc(cc4)C[C@@H](C(=O)N(C)CC(=O)N[C@@H](CCc4ccc(C(F)(F)F)c(OC)c4)C(=O)N2C1)N1CC/C=C\C[C@@H](C1=O)N(C)C(=O)CN(C)C(=O)[C@H]([C@@H](C)CC)NC3=O` [PP3063], the “NRAS/KRAS (ratio of KD value with respect to GDP-bound NRAS wild-type protein to KD value with respect to KRAS)” value in test [1] (setting [3]) was “B (a compound having 3 or more and less than 10 is denoted as B)”. For the same compound, the “HRAS/KRAS (ratio of KD value with respect to GDP-bound HRAS wild-type protein to KD value with respect to KRAS)” value in test [2] (setting [3]) was “B (a compound having 3 or more and less than 10 is denoted as B)”.

In the case of `CCCC[C@@H]1NC(=O)[C@H](CCc2ccc(C(F)(F)F)c(Cl)c2)NC(=O)CN(C)C(=O)[C@H](Cc2ccc(C)cc2)N(C)C(=O)CN(C)C(=O)CN(C)C(=O)[C@H]([C@@H](C)CC)NC(=O)[C@H](CC(C)C)N(C)C(=O)C[C@@H](C(=O)N2CCCCC2)N(C)C(=O)[C@H](CC(C)C)NC(=O)C(C)(C)N(C)C1=O` [PP0049] ([NMeL]I[Sar][Sar][NMePhe(4-Me)][Sar][hPhe(3-Cl-4-CF3)][Nle][NMeAib]L[NMeD]-Piperidide; lactam N-11), the “NRAS/KRAS (ratio of KD for GDP-bound NRAS wild-type to KD for KRAS)” value in test [1] (SPR) is “C (A compound having a KD ratio of 0.1 or more and less than 3 is denoted as C)”. In test [2] (SPR), the “HRAS/KRAS (ratio of KD for GDP-bound HRAS wild-type to KD for KRAS)” value was “C (A compound having a KD ratio of 0.1 or more and less than 3 is denoted as C)”.

As to `CCCN1C(=O)CN(C)C(=O)CN(C)C(=O)[C@H]([C@@H](C)CC)NC(=O)[C@H](CC(C)C)N(C)C(=O)C[C@@H](C(=O)N2CCOCC2)N(C)C(=O)[C@H](C2CCCC2)N(C)C(=O)C2(CCCC2)NC(=O)[C@@H]2CCCN2C(=O)[C@H](CCc2ccc(C(F)(F)F)c(Cl)c2)NC(=O)[C@@H](C)N(C)C(=O)[C@@H]1Cc1ccc(C(F)(F)F)cc1` [PP0148] ([NMeL]I[Sar][Sar][NPrPhe(4-CF3)][dNMeA][hPhe(3-Cl-4-CF3)]P[Ac5c][NMeGly(cPent)][NMeD]-Morpholide; lactam N-11), the “NRAS/KRAS (ratio of KD for GDP-bound NRAS wild-type to KD for KRAS)” value in test [1] (SPR) was “B (a compound having 3 or more and less than 10 is denoted as B)”. For the same compound, the “HRAS/KRAS (ratio of KD for GDP-bound HRAS wild-type to KD for KRAS)” value in test [2] (SPR) is “B (a compound having 3 or more and less than 10 is denoted as B)”.

As for `CCCN1C(=O)CN(C)C(=O)CN(C)C(=O)[C@H]([C@@H](C)CC)NC(=O)[C@H](CC(C)C)N(C)C(=O)C[C@@H](C(=O)N2CCOCC2)N(C)C(=O)[C@H](C2CCCC2)N(C)C(=O)C2(CCCC2)NC(=O)[C@@H]2CCCN2C(=O)[C@H](CCc2ccc(C(F)(F)F)c(Cl)c2)NC(=O)CN(C)C(=O)[C@@H]1Cc1ccccc1` [PP0211] ([NMeL]I[Sar][Sar][X44][Sar][hPhe(3-Cl-4-CF3)]P[Ac5c][NMeGly(cPent)][NMeD]-Morpholide; lactam N-11), the “NRAS/KRAS (ratio of KD for GDP-bound NRAS wild-type to KD for KRAS)” value in test [1] (SPR) was “B (a compound having 3 or more and less than 10 is denoted as B)”. Further, in test [2] (SPR), the “HRAS/KRAS (ratio of KD for GDP-bound HRAS wild-type to KD for KRAS)” value was “C (A compound having a KD ratio of 0.1 or more and less than 3 is denoted as C)”.
